# Assay results: patent EP4763839A1 (Pamplona Therapeutics (Shenzhen) Co., Ltd., priority 2023, dated 2025)
# Structures can show the parent of a compound that is named as a salt.
# Biological target: T1, IRAK4 (Homo sapiens, UniProt Q9NWZ3)
# T1 sequence (Q9NWZ3 1-460): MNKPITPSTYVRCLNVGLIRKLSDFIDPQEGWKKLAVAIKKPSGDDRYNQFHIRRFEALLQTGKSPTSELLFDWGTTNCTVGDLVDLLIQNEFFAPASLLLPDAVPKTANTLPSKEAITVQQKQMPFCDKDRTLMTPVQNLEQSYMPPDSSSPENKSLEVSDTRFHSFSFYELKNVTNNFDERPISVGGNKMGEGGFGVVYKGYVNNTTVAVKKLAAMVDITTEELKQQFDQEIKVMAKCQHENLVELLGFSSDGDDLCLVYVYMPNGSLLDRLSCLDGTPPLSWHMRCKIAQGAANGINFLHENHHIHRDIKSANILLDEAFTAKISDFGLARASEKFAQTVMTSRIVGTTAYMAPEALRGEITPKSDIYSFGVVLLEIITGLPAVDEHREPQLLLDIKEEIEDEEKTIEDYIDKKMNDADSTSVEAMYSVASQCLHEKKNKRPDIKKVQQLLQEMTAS
# Experiment: Degradation of IRAK4 in THP1 cells, Western blot
# Type: cell-based
# Parameters: Degradation of IRAK4 in THP1 by compound; host or cells: THP-1
# Details: THP-1 cells, 24 hours of incubation; for DC50: IRAK4 protein by Western blot, read-out: DC50; for Dmax: maximum degradation rate, read-out: Dmax
# Outline: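 Degradation rate derived from densitometry of IRAK4 bands versus DMSO-treated controls. Read-out: anti-IRAK4 immunoblot (10% gel, 40 μg total protein per lane, BCA-normalised) of lysates from THP1 cells incubated with compound for 24 h.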
SMILES,DC50,Dmax
"NC(=O)c1nn(-c2ccc(N3CCN(CC4CCN(c5ccc(NC6CCC(=O)NC6=O)cn5)CC4)CC3)cc2)cc1NC(=O)c1cccc(C(F)(F)F)n1 (centres unmarked) [Compound A396, N-(3-Carbamoyl-1-(4-(4-((1-(5-((2,6-dioxopiperidin-3-yl)amino)pyridin-2-yl)piperidin-4-yl)methyl)piperazin-1-yl)phenyl)-1H-pyrazol-4-yl)-6-(trifluoromethyl)picolinamide]",< 100 nM,> 60%
"Cn1c(=O)n(C2CCC(=O)NC2=O)c2cccc(N3CCC4(CC3)CC(NCc3ccc(-n5cc(NC(=O)c6cccc(-c7ccn[nH]7)n6)c(S(N)(=O)=O)n5)cc3)C4)c21 (centres unmarked) [Compound A322, N-(1-(4-(((7-(1-(2,6-dioxopiperidin-3-yl)-3-methyl-2-oxo-2,3-dihydro-1H-benzo[d]imidazol-4-yl)-7-azaspiro[3.5]nonan-2-yl)amino)methyl)phenyl)-3-sulfamoyl-1H-pyrazol-4-yl)-6-(1H-pyrazol-5-yl)picolinamide]",< 100 nM,> 60%
"CC(C)(O)c1nn(-c2ccc(N3CCN(CCC4CCN(C(=O)c5ccc(F)c(N6CCC(=O)NC6=O)c5)CC4)CC3)cc2)cc1NC(=O)c1cccc(C(F)(F)F)n1 [Compound A453, N-(1-(4-(4-(2-(1-(3-(2,4-Dioxotetrahydropyrimidin-1(2H)-yl)-4-fluorobenzoyl)piperidin-4-yl)ethyl)piperazin-1-yl)phenyl)-3-(2-hydroxypropan-2-yl)-1H-pyrazol-4-yl)-6-(trifluoromethyl)picolinamide]",< 100 nM,> 60%
"Cn1c(=O)n(C2CCC(=O)NC2=O)c2cccc(NCC3CC4(C3)CN(C(=O)c3ccc(-n5cc(NC(=O)c6cccc(-c7ccn[nH]7)n6)c(S(N)(=O)=O)n5)cc3)C4)c21 (centres unmarked) [Compound A354, N-(1-(4-(6-(((1-(2,6-Dioxopiperidin-3-yl)-3-methyl-2-oxo-2,3-dihydro-1H-benzo[d]imidazol-4-yl)amino)methyl)-2-azaspiro[3.3]heptane-2-carbonyl)phenyl)-3-sulfamoyl-1H-pyrazol-4-yl)-6-(1H-pyrazol-5-yl)picolinamide]",< 100 nM,> 60%
"NC(=O)c1nn(-c2ccc(COC3CC4(CCN(CC5CCN(c6ccc(NC7CCC(=O)NC7=O)cc6F)CC5)CC4)C3)cc2)cc1NC(=O)c1cccc(C(F)(F)F)n1 (centres unmarked) [Compound A317, N-(3-Carbamoyl-1-(4-(((7-((1-(4-((2,6-dioxopiperidin-3-yl)amino)-2-fluorophenyl)piperidin-4-yl)methyl)-7-azaspiro[3.5]nonan-2-yl)oxy)methyl)phenyl)-1H-pyrazol-4-yl)-6-(trifluoromethyl)picolinamide]",< 100 nM,> 60%
"Cn1c(=O)n(C2CCC(=O)NC2=O)c2cccc(NCCN3CCN(C(=O)c4ccc(-n5cc(NC(=O)c6cccc(-c7ccn[nH]7)n6)c(S(N)(=O)=O)n5)cc4)CC3)c21 (centres unmarked) [Compound A356, N-(1-(4-(4-(2-((1-(2,6-Dioxopiperidin-3-yl)-3-methyl-2-oxo-2,3-dihydro-1H-benzo[d]imidazol-4-yl)amino)ethyl)piperazine-1-carbonyl)phenyl)-3-sulfamoyl-1H-pyrazol-4-yl)-6-(1H-pyrazol-5-yl)picolinamide]",< 100 nM,> 60%
"COc1ccc(C(=O)N2CCC(CN3CCN(c4ccc(-n5cc(NC(=O)c6cccc(-c7ccn[nH]7)n6)c(S(N)(=O)=O)n5)cc4)CC3)C2)cc1N1CCC(=O)NC1=O (centres unmarked) [Compound A329, N-(1-(4-(4-((1-(3-(2,4-dioxotetrahydropyrimidin-1(2H)-yl)-4-methoxybenzoyl)pyrrolidin-3-yl)methyl)piperazin-1-yl)phenyl)-3-sulfamoyl-1H-pyrazol-4-yl)-6-(1H-pyrazol-5-yl)picolinamide trifluoroacetate]",< 100 nM,> 60%
